Test results published in ChEMBL document CHEMBL1122453, “Structure-activity relationships in the antiinflammatory steroids: a pattern-recognition approach” (1983).
The source made the active and inactive calls. No cut-off for these calls is given here.

Columns and labels:
Homo sapiens [1] = organism: Homo sapiens; assay: Potency relative to fluocinolone 16,17-acetonide in the human vasoconstictor test; format: functional
Rattus norvegicus [2] = organism: Rattus norvegicus; assay: Anti-inflammatory effect in rat granuloma assay, activity relative to hydrocortisone and hydrocortisone 21-acetate; format: functional
Homo sapiens [3] = organism: Homo sapiens
Rattus norvegicus [4] = organism: Rattus norvegicus; assay: Experimental relative rat granuloma activity (relative to hydrocortisone and hydrocortisone 21-acetate); 0.15-0.5; format: functional
Homo sapiens [5] = organism: Homo sapiens; assay: Potency relative to fluocinolone 16,17-acetonide(Experimental vasoconstictor activity) in human;NA = Not active; format: functional, organism-based
Homo sapiens [6] = organism: Homo sapiens; assay: PPotency relative to fluocinolone 16,17-acetonide(Experimental vasoconstictor activity) in human; NA= Not active; format: functional, organism-based
Homo sapiens [7] = organism: Homo sapiens; assay: Potency relative to fluocinolone 16,17-acetonide(Experimental vasoconstictor activity)in human; NA= Not active; format: functional, organism-based

| Compound | Potency (Rattus norvegicus [2]) | Potency (Homo sapiens [3]) | also measured |
| --- | --- | --- | --- |
| C[C@]12C=CC(=O)C=C1CC[C@@H]1[C@@H]2[C@@H](O)C[C@@]2(C)[C@H]1CC[C@]2(O)C(=O)CO [PREDNISOLONE] | 3 |  | Potency (Homo sapiens [1]): 0.1 |
| C[C@@H]1C[C@H]2[C@@H]3CCC4=CC(=O)C=C[C@]4(C)[C@@]3(F)[C@@H](O)C[C@]2(C)[C@@]1(O)C(=O)CO [DEXAMETHASONE] | 200 |  | Potency (Homo sapiens [1]): 1 |
| CCC(=O)O[C@]1(C(=O)OCCl)CCC2C3CCC4=CC(=O)CCC4(C)C3[C@@H](O)CC21C (some centres undefined) |  | inactive |  |
| C[C@@H]1CC2C3C[C@H](Cl)C4=CC(=O)C=CC4(C)C3C(O)CC2(C)C1C(=O)COC(=O)C(C)(C)C (some centres undefined) |  | inactive |  |
| CC(=O)OCC(=O)[C@@]1(O)CCC2C3CCC4=CC(=O)CCC4(C)[C@@]3(Cl)[C@@H](Cl)CC21C (some centres undefined) |  |  | Potency (Rattus norvegicus [4]): 0.15 |
| CC(=O)OCC(=O)[C@@]1(O)[C@H](C)CC2C3C[C@H](F)C4=CC(=O)C=CC4(C)C3C(O)CC21C (some centres undefined) | 60 |  | Potency (Homo sapiens [5]): inactive |
| CC1CC2C3CCC4=CC(=O)C=CC4(C)[C@@]3(F)C(O)CC2(C)[C@@]1(O)C(=O)COP(=O)(O)O (some centres undefined) |  | inactive |  |
| CCCC(=O)O[C@]1(C(=O)CO)CC[C@H]2[C@@H]3CCC4=CC(=O)CC[C@]4(C)[C@H]3[C@@H](O)C[C@@]21C [HYDROCORTISONE BUTYRATE] | 1 |  | Potency (Homo sapiens [1]): 50 |
| C[C@@H]1CC2C3CCC4=CC(=O)C=CC4(C)[C@@]3(F)[C@@H](O)CC2(C)[C@@]1(C)C(=O)CO (some centres undefined) |  | inactive |  |
| CC12CCC(=O)C=C1CCC1C2[C@@H](O)CC2(C)C1CC[C@]2(O)C(=O)OCCl (some centres undefined) |  | inactive |  |
| CC(=O)OCC(=O)[C@]1(O)C2(C)C[C@H](O)C3C(CCC4=CC(=O)C=CC43C)C2C[C@@]1(C)O (some centres undefined) |  | inactive |  |
| CC(=O)OCC(=O)[C@@]1(O)CC[C@H]2[C@@H]3CCC4=CC(=O)CC[C@]4(C)[C@@]3(F)[C@@H](O)C[C@@]21C [FLUDROCORTISONE ACETATE] | 7.3 |  | Potency (Homo sapiens [1]): 1 |
| CC(=O)OCC(=O)[C@@]1(O)CC[C@H]2[C@@H]3CCC4=CC(=O)CC[C@]4(C)[C@H]3[C@@H](O)C[C@@]21C [HYDROCORTISONE ACETATE] | 1 |  | Potency (Homo sapiens [1]): 1 |
| C[C@@H]1CC2C3CCC4=CC(=O)C=CC4(C)[C@@]3(F)C(O)CC2(C)C1C(=O)CO (some centres undefined) [DEOXYMETHASONE] | 10 | inactive |  |
| CC1(C)O[C@@H]2CC3C4CCC5=CC(=O)C=CC5(C)C4[C@@H](O)CC3(C)[C@]2(C(=O)CCl)O1 (some centres undefined) |  |  | Potency (Homo sapiens [6]): inactive |
| C[C@H]1C[C@@H]2[C@H]([C@@H](O)C[C@@]3(C)[C@H]2CC[C@]3(O)C(=O)CO)[C@@]2(C)C=CC(=O)C=C12 (stereo in doubt) [METHYLPREDNISOLONE] | 5 |  | Potency (Homo sapiens [1]): 0.1 |
| C[C@]12CCC(=O)C=C1CC[C@@H]1[C@@H]2[C@@H](O)C[C@@]2(C)[C@H]1CC[C@]2(O)C(=O)CO [HYDROCORTISONE] | 1 |  | Potency (Homo sapiens [1]): <1 |
| CCC(=O)O[C@]1(C(=O)C(=O)OCCl)CC[C@H]2C3CCC4=CC(=O)CCC4(C)C3[C@@H](O)CC21C (some centres undefined) |  | inactive |  |
| CC1(C)O[C@@H]2C[C@H]3[C@@H]4CCC5=CC(=O)C=C[C@]5(C)[C@@]4(F)[C@@H](O)C[C@]3(C)[C@]2(C(=O)CO)O1 [TRIAMCINOLONE ACETONIDE] | 49 |  | Potency (Homo sapiens [1]): 100 |
| CC(=O)OCC(=O)[C@@]1(O)CCC2C3CCC4=CC(=O)C=CC4(C)C3[C@@H](Cl)CC21C (some centres undefined) |  |  | Potency (Rattus norvegicus [4]): 0.15 |
| CC1(C)O[C@@H]2C[C@H]3[C@@H]4CCC5=CC(=O)CC[C@]5(C)[C@@]4(F)[C@@H](O)C[C@]3(C)[C@]2(C(=O)CCl)O1 [HALCINONIDE] |  | inactive | Potency (Homo sapiens [1]): >360 |

| Compound | Potency (Rattus norvegicus [2]) | Potency (Homo sapiens [3]) | also measured |
| --- | --- | --- | --- |
| CC1(C)O[C@@H]2CC3C4CCC5=CC(=O)CCC5(C)C4[C@@H](O)CC3(C)[C@]2(C(=O)CCl)O1 (some centres undefined) |  | inactive |  |
| CCC(=O)[C@@]1(C)[C@H](C)CC2C3CCC4=CC(=O)C=C[C@]4(C)C3[C@@H](O)C[C@@]21C (some centres undefined) |  | inactive |  |
| C[C@H]1C[C@H]2[C@@H]3CCC4=CC(=O)C=C[C@]4(C)[C@@]3(F)[C@@H](O)C[C@]2(C)[C@@]1(O)C(=O)CO [BETAMETHASONE] | 35.8 |  | Potency (Homo sapiens [1]): 0.8 |
| C[C@@H]1CC2C3C[C@H](F)C4=CC(=O)C=CC4(C)[C@@]3(F)C(O)CC2(C)C1C(=O)COC(=O)C(C)(C)C (some centres undefined) |  | inactive |  |
| CC(=O)OCC(=O)C1CCC2C3CCC4=CC(=O)[C@H](C)CC4(C)C3C(O)=CC12C (some centres undefined) | <0.01 |  |  |
| CC(=O)OCC(=O)[C@@]1(O)CCC2C3C[C@H](F)C4=CC(=O)C=CC4(C)C3C(O)CC21C (some centres undefined) | 20 |  |  |
| CC(=O)OCC(=O)[C@@]1(O)CCC2C3CCC4=CC(=O)[C@H](C)CC4(C)C3C(O)CC21C (some centres undefined) | 4.5 |  |  |
| CC(=O)OCC(=O)[C@@]1(O)CC[C@H]2[C@@H]3CCC4=CC(=O)CC[C@]4(C)[C@H]3C(=O)C[C@@]21C [CORTISONE ACETATE] | 0.3 |  |  |
| CC12C=CC(=O)C=C1CCC1C3CC[C@](O)(C(=O)CO)C3(C)CC(O)[C@@]12F (some centres undefined) | 17.7 |  |  |
| CC(=O)OCC(=O)[C@@]1(O)CCC2C3C[C@H](Cl)C4=CC(=O)CCC4(C)[C@@]3(F)C(O)CC21C (some centres undefined) | 11 |  |  |
| C[C@]12C[C@H](O)[C@H]3[C@@H](CCC4=CC(=O)CC[C@@]43C)[C@@H]1CC[C@@H]2C(=O)CO [CORTICOSTERONE] | 0.3 |  | Potency (Homo sapiens [1]): 0.3 |
| C[C@H]1CC2C3CCC4=CC(=O)CCC4(C)C3C(=O)CC2(C)[C@@]1(O)C(=O)CO (some centres undefined) | 2 |  |  |
| CC12C=CC(=O)C=C1[C@@H](Cl)CC1C3CC(O)[C@](O)(C(=O)CO)C3(C)CC(O)[C@@]12F (some centres undefined) | 400 |  |  |
| C[C@H]1CC2C3CCC4=CC(=O)C=CC4(C)[C@@]3(F)[C@@H](O)CC2(C)[C@@]1(O)C(=O)CCl (some centres undefined) |  | inactive |  |
| CC(=O)OCC(=O)[C@@]1(O)CCC2C3CCC4=CC(=O)CCC4(C)[C@@]3(Cl)C(O)CC21C (some centres undefined) | 3.5 |  |  |
| CC(=O)OCC(=O)[C@@]1(O)CCC2C3CCC4=CC(=O)C=CC4(C)[C@@]3(Cl)[C@@H](Cl)CC21C (some centres undefined) | 0.5 |  |  |
| CC(=O)O[C@]1(C(=O)CO)CCC2C3CCC4=CC(=O)CCC4(C)C3C(O)CC21C (some centres undefined) |  | inactive |  |
| C[C@H]1CC2C3CCC4=CC(=O)CCC4(C)[C@@]3(F)C(O)CC2(C)[C@@]1(O)C(=O)CO (some centres undefined) | 23 |  |  |
| C[C@@H]1CC2(C)C(=CC1=O)CCC1C2C(=O)CC2(C)C1CC[C@]2(O)C(=O)CO (some centres undefined) | <0.07 |  |  |
| CC(=O)OCC(=O)C1CCC2C3CCC4=CC(=O)CCC4(C)C3C(O)CC12C (centres undefined) | 0.3 |  |  |
| CC(=O)OCC(=O)[C@@]1(O)CCC2C3C[C@H](Cl)C4=CC(=O)C=CC4(C)C3C(=O)CC21C (some centres undefined) | 4 |  |  |

| Compound | Potency (Rattus norvegicus [2]) | Potency (Homo sapiens [3]) | also measured |
| --- | --- | --- | --- |
| CC(=O)OCC(=O)[C@@]1(O)[C@H](C)CC2C3C[C@H](F)C4=CC(=O)C=CC4(C)[C@@]3(F)C(O)CC21C (some centres undefined) | 120 |  |  |
| CCCCC(=O)O[C@]1(C(=O)COC(C)=O)CCC2C3CCC4=CC(=O)C=CC4(C)C3C(O)CC21C (some centres undefined) |  | inactive |  |
| CC(=O)OCC(=O)[C@@]1(O)CCC2C3C[C@H](F)C4=CC(=O)CCC4(C)C3C(O)CC21C (some centres undefined) | 10 |  |  |
| CCC(=O)OCC(=O)C1(C)C(C)CC2C3CCC4=CC(=O)C=CC4(C)[C@@]3(F)CCC21C (some centres undefined) |  | inactive |  |
| CC(=O)OCC(=O)[C@@]1(O)CCC2C3C[C@H](Cl)C4=CC(=O)C=CC4(C)[C@@]3(F)C(O)CC21C (some centres undefined) | 27 |  |  |
| CCCC(=O)OCC(=O)[C@@]1(OC(C)=O)CCC2C3C[C@H](F)C4=CC(=O)C=CC4(C)[C@@]3(F)C(O)CC21C (some centres undefined) |  | inactive |  |
| C[C@@H]1CC2C3CCC4=CC(=O)C=CC4(C)C3C(=O)CC2(C)[C@@]1(O)C(=O)CO (some centres undefined) | 13 |  |  |
| CC(=O)OCC(=O)[C@@]1(O)CCC2C3C[C@H](Cl)C4=CC(=O)CCC4(C)C3C(=O)CC21C (some centres undefined) | 1 |  |  |
| C[C@@H]1C[C@H]2[C@@H]3C[C@H](F)C4=CC(=O)C=C[C@]4(C)[C@H]3[C@@H](O)C[C@]2(C)[C@H]1C(=O)CO [FLUOCORTOLONE] | 350 |  | Potency (Homo sapiens [7]): inactive |
| CC(=O)OCC(=O)[C@@]1(O)[C@H](C)CC2C3C[C@H](F)C4=CC(=O)CCC4(C)C3C(O)CC21C (some centres undefined) | 5 |  |  |
| C[C@@H]1C[C@H]2[C@@H]3C[C@H](F)C4=CC(=O)C=C[C@]4(C)[C@H]3[C@@H](O)C[C@]2(C)[C@@]1(O)C(=O)CO [PARAMETHASONE] | 63.6 | inactive |  |
| CCCCC(=O)OCC(=O)[C@H]1[C@H](C)C[C@H]2[C@@H]3C[C@H](F)C4=CC(=O)C=C[C@]4(C)[C@@]3(F)[C@@H](O)C[C@@]21C |  |  | Potency (Homo sapiens [7]): inactive |
| CC1(C)O[C@@H]2CC3C4C[C@H](F)C5=CC(=O)C=CC5(C)[C@@]4(F)[C@@H](O)CC3(C)[C@]2(C(=O)C(=O)OCCl)O1 (some centres undefined) |  | inactive |  |
| CC(=O)OCC(=O)C1CCC2C3CCC4=CC(=O)[C@H](C)CC4(C)[C@@]3(F)C(O)CC12C (some centres undefined) | 2.4 |  |  |
| CC(=O)OCC(=O)C1CCC2C3CCC4=CC(=O)CCC4(C)C3C(O)=CC12C (centres undefined) | 0.2 |  |  |
| C[C@@H]1CC2C3CCC4=CC(=O)C=CC4(C)[C@@]3(Cl)C(O)CC2(C)[C@@]1(O)C(=O)CO (some centres undefined) | 60 |  |  |
| CC(=O)OCC(=O)[C@@]1(O)CC[C@H]2[C@@H]3CCC4=CC(=O)C=C[C@]4(C)[C@H]3[C@@H](O)C[C@@]21C [PREDNISOLONE ACETATE] | 3 |  | Potency (Homo sapiens [1]): 1 |
| CC(=O)OCC(=O)[C@@]12OC(C)(C)O[C@@H]1CC1C3C[C@H](F)C4=CC(=O)C=CC4(C)C3C(O)CC12C (some centres undefined) | 20 |  |  |
| C[C@H]1C[C@H]2[C@@H]3CCC4=CC(=O)C=C[C@]4(C)[C@H]3[C@@H](O)C[C@]2(C)[C@@]1(O)C(=O)CO | 23 |  |  |
| C[C@]12C=CC(=O)C=C1CC[C@H]1[C@@H]3C[C@@H](O)[C@](O)(C(=O)CO)[C@@]3(C)C[C@H](O)[C@@]12F [TRIAMCINOLONE] | 2.6 |  | Potency (Homo sapiens [1]): 0.01 |
